# Results as given in paper PMC12667995 (bioRxiv, 2025).
# Experiments:
# [1] = molecular target: T1, ProT3 (Arabidopsis thaliana, UniProt Q9SJP9); experiment: 3H-proline uptake and two-electrode voltage clamp, Xenopus laevis oocytes; assay type: cell-based; conditions: uptake: 0.5 uM 3H-L-proline, labelled compound, pH 5.0, 30 min; currents: 5 mM L-proline, pH 5.0, -60 mV
# T1 sequence (Q9SJP9 1-436): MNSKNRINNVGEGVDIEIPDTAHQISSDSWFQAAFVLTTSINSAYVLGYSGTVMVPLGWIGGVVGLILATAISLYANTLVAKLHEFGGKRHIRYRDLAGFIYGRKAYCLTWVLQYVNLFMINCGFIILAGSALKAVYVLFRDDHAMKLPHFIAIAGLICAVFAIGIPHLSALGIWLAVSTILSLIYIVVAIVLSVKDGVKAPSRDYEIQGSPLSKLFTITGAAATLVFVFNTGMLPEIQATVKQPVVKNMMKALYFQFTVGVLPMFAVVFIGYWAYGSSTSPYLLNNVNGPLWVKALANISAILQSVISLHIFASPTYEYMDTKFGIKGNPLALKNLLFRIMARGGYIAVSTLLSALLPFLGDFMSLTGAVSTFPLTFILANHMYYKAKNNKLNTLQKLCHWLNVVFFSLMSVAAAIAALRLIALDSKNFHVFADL
# [2] = molecular target: T2, ProT2 (Arabidopsis thaliana, UniProt P92962); experiment: as above; assay type: cell-based; conditions: uptake: 0.5 uM 3H-L-proline, labelled compound, pH 5.0, 30 min; currents: 5 mM L-proline, pH 5.0, -60 mV
# T2 sequence (P92962 1-439): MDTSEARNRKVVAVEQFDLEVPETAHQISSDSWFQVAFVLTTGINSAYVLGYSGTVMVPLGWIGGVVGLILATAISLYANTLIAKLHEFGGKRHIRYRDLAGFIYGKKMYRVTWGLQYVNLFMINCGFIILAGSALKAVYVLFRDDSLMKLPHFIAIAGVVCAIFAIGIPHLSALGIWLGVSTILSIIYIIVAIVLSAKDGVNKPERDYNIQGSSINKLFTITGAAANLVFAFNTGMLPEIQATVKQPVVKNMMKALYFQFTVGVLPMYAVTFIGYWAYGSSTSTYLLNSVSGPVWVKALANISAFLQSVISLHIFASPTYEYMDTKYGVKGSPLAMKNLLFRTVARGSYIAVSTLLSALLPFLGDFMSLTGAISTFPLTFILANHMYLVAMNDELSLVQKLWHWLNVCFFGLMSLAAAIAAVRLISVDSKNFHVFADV
structure (smiles),measurement,setting,value
O=C(O)[C@@H]1CCCN1 [L-proline],"3H-proline uptake and two-electrode voltage clamp, Xenopus laevis oocytes",[1],Oocytes expressing ProT2 or ProT3 can import ^3H-proline into the cells from external buffer
same,"3H-proline uptake and two-electrode voltage clamp, Xenopus laevis oocytes",[2],Oocytes expressing ProT2 or ProT3 can import ^3H-proline into the cells from external buffer
